Measurements reported in ChEMBL document CHEMBL4680063, “G-Protein biased opioid agonists: 3-hydroxy-N-phenethyl-5-phenylmorphans with three-carbon chain substituents at C9” (RSC Med Chem, 2020).

Legend:
[1] = target: Kappa-type opioid receptor (Homo sapiens, UniProt P41145); assay: Agonist activity at human KOR expressed in CHOK1 cells assessed as inhibition of forskolin-stimulated cAMP accumulation incubated for 30 mins by luminescence assay; assay type: functional, cell-based, CHO-K1
[2] = target: Delta-type opioid receptor (Homo sapiens, UniProt P41143); assay: Agonist activity at human DOR expressed in CHOK1 cells assessed as inhibition of forskolin-stimulated cAMP accumulation incubated for 30 mins by luminescence assay; assay type: functional, cell-based, CHO-K1
Sequence of Delta-type opioid receptor (P41143 whole entry): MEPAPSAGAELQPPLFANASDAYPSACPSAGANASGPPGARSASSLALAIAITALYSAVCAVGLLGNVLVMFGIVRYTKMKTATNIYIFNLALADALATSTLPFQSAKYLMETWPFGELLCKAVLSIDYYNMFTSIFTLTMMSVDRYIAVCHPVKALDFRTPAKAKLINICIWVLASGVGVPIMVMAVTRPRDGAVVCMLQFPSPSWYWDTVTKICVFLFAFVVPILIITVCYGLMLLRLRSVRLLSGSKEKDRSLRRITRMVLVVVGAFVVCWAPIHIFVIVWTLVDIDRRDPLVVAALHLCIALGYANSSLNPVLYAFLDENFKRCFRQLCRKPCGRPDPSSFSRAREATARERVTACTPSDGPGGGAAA

Mu-type opioid receptor [3] = target: T1, Mu-type opioid receptor (Homo sapiens, UniProt P35372); assay: Activity at human MOR expressed in CHOK1 cells co-expressing beta-arrestin2 EFC assessed as beta-arrestin2 EFC recruitment measured after 90 mins by PathHunter assay; assay type: ADME, cell-based, CHO-K1
T1 sequence (P35372 whole entry): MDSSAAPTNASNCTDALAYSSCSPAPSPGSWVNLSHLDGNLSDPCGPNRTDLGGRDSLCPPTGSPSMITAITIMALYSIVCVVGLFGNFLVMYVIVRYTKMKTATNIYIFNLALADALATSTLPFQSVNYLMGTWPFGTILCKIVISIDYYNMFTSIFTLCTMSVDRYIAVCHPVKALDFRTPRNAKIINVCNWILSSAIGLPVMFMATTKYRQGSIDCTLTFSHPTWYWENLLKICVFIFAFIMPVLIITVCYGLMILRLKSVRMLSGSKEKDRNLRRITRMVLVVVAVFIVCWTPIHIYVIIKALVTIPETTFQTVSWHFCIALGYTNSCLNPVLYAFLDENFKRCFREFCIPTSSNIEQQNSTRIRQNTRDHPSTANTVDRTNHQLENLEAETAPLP

Mu-type opioid receptor [4] = target: T1, Mu-type opioid receptor; assay: Activity at human MOR expressed in U2OS cells co-expressing beta-arrestin2 EFC assessed as beta-arrestin2 EFC recruitment by Tango assay; assay type: ADME, cell-based
Mu-type opioid receptor [5] = target: T1, Mu-type opioid receptor; assay: Agonist activity at human MOR expressed in CHOK1 cells assessed as inhibition of forskolin-stimulated cAMP accumulation incubated for 30 mins by luminescence assay; assay type: functional, cell-based, CHO-K1
Mu-type opioid receptor [6] = target: T1, Mu-type opioid receptor; assay: Agonist activity at human MOR expressed in CHOK1 cells assessed as induction of beta-arrestin recruitment measured after 90 mins by PathHunter assay relative to control; assay type: cell-based; details: CHO-K1

Sequence of Kappa-type opioid receptor (P41145 whole entry): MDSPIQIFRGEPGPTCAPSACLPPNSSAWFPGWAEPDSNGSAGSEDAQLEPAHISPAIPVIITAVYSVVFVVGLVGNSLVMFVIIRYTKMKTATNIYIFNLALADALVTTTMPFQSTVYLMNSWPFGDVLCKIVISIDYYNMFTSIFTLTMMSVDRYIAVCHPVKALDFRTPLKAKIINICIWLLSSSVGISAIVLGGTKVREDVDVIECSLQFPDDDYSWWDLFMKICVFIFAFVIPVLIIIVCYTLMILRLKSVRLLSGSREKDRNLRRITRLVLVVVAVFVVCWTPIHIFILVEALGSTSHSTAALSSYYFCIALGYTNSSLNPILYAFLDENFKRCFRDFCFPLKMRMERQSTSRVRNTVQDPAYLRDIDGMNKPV

SMILES | EC50 [1] [nM] | EC50 [2] [nM] | EC50 (Mu-type opioid receptor [3]) [nM] | EC50 (Mu-type opioid receptor [4]) [nM] | EC50 (Mu-type opioid receptor [5]) [nM] | Emax (Mu-type opioid receptor [6]) [%]
CCC[C@H]1[C@@H]2CCC[C@@]1(c1cccc(O)c1)CCN2CCc1ccccc1 | > 10000 | > 10000 | > 25000 | > 25000 | – | –
OC/C=C/[C@H]1[C@@H]2CCC[C@@]1(c1cccc(O)c1)CCN2CCc1ccccc1 | > 10000 | > 10000 | > 25000 | > 25000 | – | –
Oc1cccc([C@@]23CCC[C@H]([C@H]2O)N(CCc2ccccc2)CC3)c1 | 323 | 2.6 | 6.08 | – | 0.017 | –
CCOC(=O)CC[C@H]1[C@@H]2CCC[C@@]1(c1cccc(O)c1)CCN2CCc1ccccc1 | 35.3 | 49.1 | 11.6 | > 25000 | 0.24 | –
O=C(O)CC[C@H]1[C@@H]2CCC[C@@]1(c1cccc(O)c1)CCN2CCc1ccccc1 | > 10000 | > 10000 | > 25000 | > 25000 | 31.7 | –
COC(=O)CC[C@H]1[C@@H]2CCC[C@@]1(c1cccc(O)c1)CCN2CCc1ccccc1 | – | > 10000 | 1.72 | 12.5 | 0.46 | –
C[C@@H](Cc1ccsc1)NC(=O)NC[C@H](Cc1ccc(O)cc1)N(C)C | – | – | – | – | – | 4.3
OCCC[C@@H]1[C@H]2CCC[C@]1(c1cccc(O)c1)CCN2CCc1ccccc1 | > 10000 | > 10000 | > 25000 | > 25000 | – | –
COC(=O)CC[C@@H]1[C@H]2CCC[C@]1(c1cccc(O)c1)CCN2CCc1ccccc1 | > 10000 | > 10000 | > 25000 | > 25000 | 31.3 | –
COC(=O)/C=C/[C@H]1[C@@H]2CCC[C@@]1(c1cccc(O)c1)CCN2CCc1ccccc1 | > 10000 | 143 | > 25000 | – | 132 | –
COC(=O)CC[C@@H]1[C@@H]2CCC[C@@]1(c1cccc(O)c1)CCN2CCc1ccccc1 | 323 | > 10000 | > 25000 | – | 854 | –
OCCC[C@H]1[C@@H]2CCC[C@@]1(c1cccc(O)c1)CCN2CCc1ccccc1 | > 10000 | 80.9 | > 25000 | > 25000 | – | –
